Blank lines part the entries; values can stand above or below the molecule they belong to.
Experiments:
[1] = system: retinal neovascularization; assay: Oxygen-induced retinopathy (OIR) model, retinal neovascularization (isolectin B4, tufts); assay type: in vivo, C57BL/6 mice; conditions: 10 μg/eye intraocular; FIG. 12B
Protocol: (§1) Mice burn by crossbreeding of 7- to 8-week old C57BL/6 purchased from Koatech were used as experimental animals. On day 7 after birth, mice (postnatal day 7, P7) were placed in an oxygen chamber, and the oxygen concentration in the chamber was adjusted and maintained at 75% (hyperoxia) for 5 days (P7 to P11). The illumination in the laboratory was turned on or off every 12 hours and the temperature was maintained at 24±2° C. The mice were fed with free access to feed and drinking water. After 5 days, the mice were exposed to inner air (normoxia) out of the chamber for 5 days (P12-P17) to induce retinal angiogenesis. For drug administration, the mice were randomly divided into five groups (10 mice per group) immediately after the exposure to normoxia on P12, as shown in Table 7. Drugs were administered intraocularly at concentrations appropriate for respective groups using Hamilton syringe (Hamilton, USA). The same amount of vehicle was administered to the OIR group, and 10 μg/eye of ranibizumab was administered as control drug. Subjects with surgical damage caused by drug administration or subjects with lens opacities or the like were excluded from subsequent experiment procedures.
In addition, the extent of neovascularization in the retina was also evaluated. […]

[2] = half-dose (250 μg) dropped 6 times at 2 hour intervals in rabbits; cited from earlier work
[3] = system: corneal neovascularization; assay: Corneal neovascularization resistance model; assay type: in vivo, C57BL/6 mice; conditions: eye drops for 10 days from 10 days after alkaline burn; FIG. 7B
Protocol: The 6-week old female C57BL/6 mice were used. After anesthesia (Zoletil 40 mg/kg+Rompun 5 mg/kg, IP), the NaOH filter paper was placed on the left eye cornea to induce an alkaline burn for 30 seconds, followed by sufficient washing with 40 ml of PBS, thereby constructing corneal neovascularization animal models. […] Each drug was administered through eye drops at a concentration of 5 mg/ml with 5 μl each time, four times a day for 5 days. After the completion of the administration, the eyeballs were extracted, immersed and fixed in 4% paraformaldehyde solution for one hour, and washed with PBS, and then the cornea was isolated using a dissecting microscope. The isolated cornea was additionally fixed in a 4% paraformaldehyde solution for 12 hours. The fixed cornea was washed with PBS, and subjected to reaction in a blocking buffer (PBS, 0.3% BSA, 0.1% Triton X100) at room temperature for 2 hours. A primary antibody (BD Pharmingen) specific to PECAM-1 (CD31) as a vascular endothelial marker and a primary antibody (Millipore) specific to NG-2 as a pericyte marker were reacted overnight in a refrigerator, and secondary fluorescent antibodies (Alexa Fluor488, Alexa Fluor594, Life Technologies) were reacted at room temperature for 4 hours for tissue staining. […]

[4] = Ex-vivo ocular penetration model, extracted eyeballs immersed in FITC-conjugated protein; assay type: in vitro ADME, C57BL/6 mouse; conditions: confocal microscope; FIG. 8E
Protocol: The eyeballs were fixed at 4° C. for 4 hours using Davidson's solution (glacial acetic acid:ethyl alcohol:neutralized formalin:distilled water=1:3:2:3), and then the anterior tissue of the conjunctiva was partially cut with scissors, and the retinal metaplasia was minimized in a paraffin slide preparation step. After overnight fixation at 4° C. using 10% (v/v) formalin solution, moisture was removed from the tissues by increasing the concentration of alcohol from low to high concentration using an automatic infiltration machine, followed by transparency with xylene and then paraffin penetration. The paraffin penetration-completed tissue was placed in a base mold to make a paraffin block, and 4 sections were prepared using a microtome. The paraffin sections were unfolded to be attached to slides pre-coated with albumin, poly-L-lysine, and saline in a floating constant-temperature water bath. The tissue slides were deparaffinized and then directly mounted, and then FITC was observed using a confocal microscope to investigate the ocular tissue penetration and distribution.
Thereafter, while unconjugated FITC was removed using PD-10 desalting column, the buffer was changed with PBS, and then the purified product was quantified, and used as a sample for efficacy evaluation.

macular degeneration = conditions: cited from earlier work
[5] = system: choroidal neovascularization; assay: Laser-induced choroidal neovascularization (CNV) model; assay type: in vivo, Brown Norway (BN) rats; conditions: 100 μg/eye intraocular, 10 days after administration; FIG. 10B
Protocol: Seven-week old male Brown Norway (BN) rats (SLC Japan, Tokyo, Japan) were acclimated for one week, and then anesthetized by peritoneal injection of pentobarbital sodium (Hanlim Pharm, 25 mg/kg). Thereafter, the pupil was dilated with 1% tropicamide eye drops, and then six photocoagulation spots were formed around the optic nerve head using a diode laser (wavelength, 532 nm; diameter, 100 μm; power, 150 mW; time period, 0.1 sec). The destruction of Bruch's membrane was verified by the formation of characteristic bubbles. The eyeballs with hemorrhage or no bubbles were excluded from the subsequent experimental procedures. Drugs were administered intraocularly at concentrations appropriate for respective groups using Hamilton syringe (Hamilton, USA). The same amount of vehicle was administered to the CNV group, and 100 μg/eye of ranibizumab was administered as control drug. Subjects with surgical damage caused by drug administration or subjects with lens opacities or the like were excluded from subsequent experimental procedures.
The degree of choroidal neovascularization was evaluated 10 days after drug administration. The eyeball of each rat was extracted, and then incised at a region adjacent to the cornea and sclera under a microscope. […] The sizes of subretinal neovascular areas were analyzed using Image J software (NIH, USA).

vascular leakage = assay: Oxygen-induced retinopathy (OIR) model, vascular leakage (dextran fluorescence extravasation); assay type: in vivo, C57BL/6 mice; conditions: 10 μg/eye intraocular on P12, evaluated P17; FIG. 11A
Protocol: as §1
The degree of retinal edema was evaluated on day 17 after birth. […] The amount of fluorescence extravasated out of vessels was quantitatively analyzed using Image J.

VEGF-A = biological target: T1, VEGF-A (Homo sapiens, UniProt P15692); conditions: designed property, versus ranibizumab; cited from earlier work
T1 sequence (P15692 207-395): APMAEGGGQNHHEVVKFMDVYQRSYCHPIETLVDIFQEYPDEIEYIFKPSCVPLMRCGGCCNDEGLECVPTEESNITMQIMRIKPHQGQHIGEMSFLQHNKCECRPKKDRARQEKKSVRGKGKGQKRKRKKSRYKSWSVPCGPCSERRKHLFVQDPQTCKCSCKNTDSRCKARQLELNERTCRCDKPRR

[6] = cited from earlier work
neuropilin 1 (NRP 1) = assay: SPR (Biacore 2000) assay of binding ability to neuropilin 1 receptor; conditions: Table 4, receptor NRP 1, read-out: Affinity, KD
Protocol: First, the affinity to a neuropilin receptor was performed on neuropilin 1 (NRP 1). Specifically, surface plasmon resonance (SPR) was performed using Biacore 2000 (GE Healthcare) in order to investigate the binding ability of TPP to the neuropilin 1 domain. Specifically, each neuropilin 1 domain was diluted in 10 mM Na-acetate buffer (pH 4.0), and fixed on CMS sensor chip (GE Healthcare, USA) at about 1,000 response units (RU). […] After the association/dissociation analysis, the CMS chip was regenerated by allowing buffer (20 mM NaOH, 1M NaCl, pH 10.0) to flow at a flow rate of 30 μl/min for 1 minute.
After the Biacore CMS chip was activated with EDC/NHS mixture, target protein NRP1 was diluted in a fixing buffer (10 mM sodium acetate, pH 5.5), and fixed to final 79 Ru through calculation at Rmax: 200.

Sequence of neuropilin 1 (NRP 1) (O14786 273-586 limits assumed): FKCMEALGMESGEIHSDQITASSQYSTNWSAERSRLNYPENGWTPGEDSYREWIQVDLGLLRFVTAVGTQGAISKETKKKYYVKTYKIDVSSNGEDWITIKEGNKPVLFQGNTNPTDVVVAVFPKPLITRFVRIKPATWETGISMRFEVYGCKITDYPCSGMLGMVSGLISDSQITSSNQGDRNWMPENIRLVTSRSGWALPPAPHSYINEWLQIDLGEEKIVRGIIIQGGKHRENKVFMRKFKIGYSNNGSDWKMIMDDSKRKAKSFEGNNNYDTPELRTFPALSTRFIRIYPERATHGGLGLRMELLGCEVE

Molecule: ranibizumab
degree of neovascularization relative to vehicle group, in words [1]: the same degree of neovascularization | time to reach the retinal tissue after eye drops [2]: 3 to 7 days | neovessel reducing efficacy, in words [3]: no significant efficacy | distribution in cross-section of the ocular retinal tissue [4]: mostly present near the sclera | patients with macular degeneration showing response (macular degeneration; at the time of development): about 90% | responding patients showing a therapeutic effect, such as eyesight improvement (macular degeneration; human, in vivo): 30% | inhibition of (neo)vascularization in comparison with the vehicle group [5]: about 31% | vascular leakage compared to the vehicle group (vascular leakage): somewhat reduced

Molecule: aflibercept
increase in binding ability to VEGF-A (VEGF-A): 100 fold

Molecule: conbercept
bioavailability at the time of applying eye drops [6]: less than 5%

Kd (neuropilin 1 (NRP 1)): 27.9 nM
B1: Sema3A: secreted class 3 semaphorin ligand binding to neuropilin (protein)
chain: NYQNGKNNVPRLKLSYKEMLESNNVITFNGLANSSSYHTFLLDEERSRLYVGAKDHIFSFDLVNIKDFQKIVWPVSYTRRDECKWAGKDILKECANFIKVLKAYNQTHLYACGTGAFHPICTYIEIGHHPEDNIFKLENSHFENGRGKSPYDPKLLTASLLIDGELYSGTAADFMGRDFAIFRTLGHHHPIRTEQHDSRWLNDPKFISAHLISESDNPEDDKVYFFFRENAIDGEHSGKATHARIGQICKNDFGGHRSLVNKWTTFLKARLICSVPGPNGIDTHFDELQDVFLMNFKDPKNPVVYGVFTTSSNIFKGSAVCMYSMSDVRRVFLGPYAHRDGPNYQWVPYQGRVPYPRPGTCPSKTFGGFDSTKDLPDDVITFARSHPAMYNPVFPMNNRPIVIKTDVNYQFTQIVVDRVDAEDGQYDVMFIGTDVGTVLKVVSIPKETWYDLEEVLLEEMTVFREPTAISAMELSTKQQQLYIGSTAGVAQLPLHRCDIYGKACAECCLARDPYCAWDGSACSRYFPTAKRRTRRQDIRNGDPLTHCSDLHHDNHHGHSPEERIIYGVENSSTFLECSPKSQRALVYWQFQRRNEERKEEIRVDDHIIRTDQGLLLRSLQQKDSGNYLCHAVEHGFIQTLLKVTLEVIDTEHLEELLHKDDDGDGSKTKEMSNSMTPSQKVWYRDFMQLINHPNLNTMDEFCEQVWKRDRKQRRQRPGHTPGNSNKWKHLQENKKGRNRRTHEFERAPRSV
